Experimental data published in US7442796B2, “Compounds for the treatment of metabolic disorders” (Wellstat Therapeutics Corporation, priority 2003, dated 2008).

Tested on: db/db mice
Assay: Antidiabetic effects in db/db mice (serum glucose and triglycerides after daily oral dosing)
Assay type: in vivo
Settings: male db/db mice, 17 days
From the text: C57BL/Ksola (db/db) mice have a defect in leptin signaling, leading to hyperphagia, obesity and diabetes. Moreover, unlike ob/ob mice on a C57BL/6J background, db/db mice on a C57BLKS background undergo failure of their insulin-producing pancreatic islet cells, resulting in progression from hyperinsulinemia (associated with peripheral insulin resistance) to hypoinsulinemic diabetes.
Male obese (db/db homozygote) C57BL/Ksola mice approximately 8 weeks of age, were obtained from Jackson Labs (Bar Harbor, Me.) and sorted into groups of 7 animals each animals such that the body weights (40-45 g) and serum glucose levels (≧300 mg/dl in fed state) were similar between groups. A minimum of 7 days was allowed for adaptation after arrival. All animals were maintained under controlled temperature (23° C.), relative humidity (50±5%) and light (7:00-19:00), and allowed free access to standard chow (Formulab Diet 5008, Quality Lab Products, Elkridge, Md.) and water.
Treatment cohorts were given daily oral doses of vehicle (1% hydroxypropylmethylcellulose), Compounds BI, CF, CG, CQ or phenylacetate for 17 days. At the end of the treatment period, blood samples were collected and serum glucose and triglycerides were measured.

## Cc1cccc(C)c1COc1cccc(C(=O)C(=O)O)c1 [CQ, [3-(2,6-Dimethylbenzyloxy)-phenyl]-oxoacetic acid]
60 mg/kg daily oral
  Glucose mg/dL (±SEM): 691 ± 37 mg/dL
  Triglycerides: 175 ± 25 mg/dL
100 mg/kg daily oral
  Glucose mg/dL (±SEM): 786 ± 65 mg/dL
  Triglycerides: 125 ± 10 mg/dL

## O=C(O)Cc1ccccc1 [Phenylacetate, reference compound]
300 mg/kg daily oral
  Glucose mg/dL (±SEM): 661 ± 64 mg/dL
  Triglycerides: 171 ± 33 mg/dL
